In one assay the target is T1, efflux protein (Escherichia coli, UniProt P02980).
T1 sequence (P02980 1-401): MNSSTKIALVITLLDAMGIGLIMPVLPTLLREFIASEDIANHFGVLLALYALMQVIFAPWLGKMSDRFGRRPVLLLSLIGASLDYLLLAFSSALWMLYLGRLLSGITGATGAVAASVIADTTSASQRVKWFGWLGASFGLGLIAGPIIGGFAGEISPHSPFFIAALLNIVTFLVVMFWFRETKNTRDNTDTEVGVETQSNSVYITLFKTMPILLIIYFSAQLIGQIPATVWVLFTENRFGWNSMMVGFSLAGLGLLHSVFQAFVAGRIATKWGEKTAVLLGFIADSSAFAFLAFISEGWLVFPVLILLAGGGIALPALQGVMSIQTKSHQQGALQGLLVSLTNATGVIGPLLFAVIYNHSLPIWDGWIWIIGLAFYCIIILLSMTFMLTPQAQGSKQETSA
The assay can be described thus: everted membrane vesicle assay, blocking activity of 13-S-derivatives. The note with it: blocking activity against the efflux protein, everted membrane vesicle assay. In kind it is biochemical.

Assay [1] concerns E. coli Class B Tc^r (DI-209). In kind it is cell-based. The note with it: drug alone.
For assay [2], the system named is E. faecalis Tc^s (ATCC9790r). The assay can be described thus: susceptibility testing MIC/MLC, drug alone. In kind it is cell-based.
For assay [3], the system named is E. faecalis Tc^r (L) ATCC9790r/Tell.). The assay can be described thus: susceptibility testing MIC/MLC, drug alone. It counts as cell-based. Particulars: Tc^r (L) ATCC9790r/Tell.), drug alone.
Assay [4] concerns E. coli Class A Tc^r (DI-299). In kind it is cell-based. Particulars: drug alone.
Assay [5] concerns E. coli Tc^s (MI 308-226). The assay can be described thus: susceptibility testing MIC/MLC, drug alone. In kind it is cell-based. Particulars: Tc^s (MI 308-226), drug alone.

The structures appear in SMILES notation.

On to `CC(C)CSCC1c2cccc(O)c2C(=O)C2=C(O)C3(O)C(=O)C(C(N)=O)=C(O)C(N(C)C)C3C(O)C21` (stereo not shown) [Isobutyl], for which the Ki at efflux protein was 188 nM.

`CC(C)SCC1c2cccc(O)c2C(=O)C2=C(O)C3(O)C(=O)C(C(N)=O)=C(O)C(N(C)C)C3C(O)C21` (stereo not shown) [Isopropyl]: the MIC in assay [1] is 35 ± 6 µg; in assay [2], 3 ± 1 µg; in assay [3], 3 ± 1 µg; in assay [4], 45 ± 6 µg; in assay [5], 22 ± 2 µg. The MLC was 46 ± 16 µg in assay [1] (kills 99.9%), 60 µg in assay [4] (kills 99.9%) and 50 µg in assay [5] (kills 99.9%). Moreover, affinity on efflux protein was put at a Ki of 771 nM.

The compound `CN(C)C1C(O)=C(C(N)=O)C(=O)C2(O)C(O)=C3C(=O)c4c(O)cccc4C(CSCc4ccc(Cl)cc4)C3C(O)C12` (stereo not shown) [p-Cl-Benzyl] returned a Ki on efflux protein of 1.5 µg/mL.

On to `Cc1ccc(CSCC2c3cccc(O)c3C(=O)C3=C(O)C4(O)C(=O)C(C(N)=O)=C(O)C(N(C)C)C4C(O)C32)cc1` (stereo not shown) [p-Me-Benzyl], for which, at efflux protein, the Ki is 1.2 µg/mL.

With `CN(C)C1C(O)=C(C(N)=O)C(=O)C2(O)C(O)=C3C(=O)c4c(O)cccc4C(CSC(C)(C)C)C3C(O)C12` (stereo not shown) [t-Butyl], the Ki at efflux protein was 0.3 µg/mL. This Ki is about 4-fold lower than that of the compound before.

Source of the values: patent publication US7732429B2 (Trustees of Tufts College, priority 1994, dated 2010).
